For 1 compound, Kd results are on record in publication PMC3523284 (Cell metabolism, 2012).

Each structure is given as a SMILES string.

Assay [1] concerns the target Mss51 (Saccharomyces cerevisiae, UniProt P32335, C85S). Kind of assay: difference UV-visible spectroscopy titration. In kind it is binding.
Assay [2] deals with T1, Mss51 (Saccharomyces cerevisiae, UniProt P32335).
T1 sequence (P32335 1-436): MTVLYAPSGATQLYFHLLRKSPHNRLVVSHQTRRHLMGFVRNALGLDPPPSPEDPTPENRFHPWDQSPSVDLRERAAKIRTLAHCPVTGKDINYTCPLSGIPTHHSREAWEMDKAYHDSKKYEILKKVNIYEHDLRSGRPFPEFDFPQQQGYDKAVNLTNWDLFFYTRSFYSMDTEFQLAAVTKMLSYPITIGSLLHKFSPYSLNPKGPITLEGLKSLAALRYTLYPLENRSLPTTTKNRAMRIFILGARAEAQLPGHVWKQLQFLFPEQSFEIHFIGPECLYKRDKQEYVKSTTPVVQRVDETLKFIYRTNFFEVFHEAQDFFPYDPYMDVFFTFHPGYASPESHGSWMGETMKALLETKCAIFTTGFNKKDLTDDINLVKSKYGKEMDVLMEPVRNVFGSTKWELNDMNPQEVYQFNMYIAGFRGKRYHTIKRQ
Kind of assay: difference UV-visible spectroscopy titration. In kind it is binding.

Mss51 (Saccharomyces cerevisiae, UniProt P32335, C85S), sequence (P32335 whole entry C85S): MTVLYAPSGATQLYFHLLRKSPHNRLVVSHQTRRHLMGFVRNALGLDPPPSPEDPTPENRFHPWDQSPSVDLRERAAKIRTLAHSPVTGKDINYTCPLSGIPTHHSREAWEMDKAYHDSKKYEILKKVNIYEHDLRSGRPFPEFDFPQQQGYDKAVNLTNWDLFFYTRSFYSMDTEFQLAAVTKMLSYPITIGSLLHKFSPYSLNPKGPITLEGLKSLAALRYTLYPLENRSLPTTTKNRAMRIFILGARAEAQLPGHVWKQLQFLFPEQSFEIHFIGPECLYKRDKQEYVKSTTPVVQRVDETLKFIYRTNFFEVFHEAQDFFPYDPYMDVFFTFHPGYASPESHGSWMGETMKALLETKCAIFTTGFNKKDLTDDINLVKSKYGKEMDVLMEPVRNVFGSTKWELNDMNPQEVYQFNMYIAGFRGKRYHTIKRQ

As to `C=CC1=C(C)C2=Cc3c(C=C)c(C)c4[n]3[Fe]([Cl])[n]3c(c(C)c(CCC(=O)O)c3=CC3=NC(=C4)C(C)=C3CCC(=O)O)=CC1=N2` [hemin], the equilibrium dissociation constant (Kd) on Mss51 [1] was 324 ± 74 nM; at Mss51 [2] it was ~445 nM.
